# From US10981932B2, “Macrocyclic indole derivatives” (Bayer Aktiengesellschaft, priority 2016, dated 2021)
# Counter-ions that a name gives are not always drawn. Like-named read-outs stand apart in the source and are kept apart here.
# Experiments:
# SUDHL5 [1] = assay: Anti-proliferative effect (CellTiter-Glo, 72 h), SUDHL5; type: cell-based; conditions: SUDHL5 cells, antiproliferation, 72 h incubation, median, read-out: Antiproli SUDHL5 [M] (median)
# Outline: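 72 h compound treatment, 37 °C humidified; CellTiter-Glo added, 10 min incubation, luminescence read; day 0 plate read in parallel for baseline.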
# SUDHL10 [2] = assay: Induction of caspase-3/7 activity (Caspase-Glo 3/7), SUDHL10; type: cell-based; conditions: caspase-3/7 induction, SUDHL10 cells, 3 h treatment, median
# Outline: (§1)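 DLBCL lines SUDHL5 and SUDHL10 treated with compounds for 3 h at 37 °C; caspase-3/7 activity read by Caspase-Glo 3/7 luminescence. Medium-only background subtracted; EC50 fitted with bottom fixed at 1 and top fixed at the reference compound's maximal induction.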
# SUDHL5 [3] = assay: Induction of caspase-3/7 activity (Caspase-Glo 3/7), SUDHL5; type: cell-based; conditions: caspase-3/7 induction, SUDHL5 cells, 3 h treatment, median
# Outline: as §1
# MCL-1 = MCL-1 (Homo sapiens, UniProt Q07820); assay: Protein-protein interaction assay MCL-1/Noxa BH3 peptide (MCL-1 assay), TR-FRET; type: binding; conditions: MBP-MCL-1 / Noxa BH3-derived peptide, median
# Outline: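 IC50 came from a 4-parameter fit of the normalized 665/620 nm TR-FRET ratio (anti-MBP Eu-cryptate/streptavidin-XL665). Compounds (0.1 nM–20 μM, duplicates) were preincubated 10 min at 22 °C with 1 nM MBP-MCL-1 in pH 7 Tris/NaCl/KF buffer, then read after 1 h at 22 °C plus overnight at 4 °C.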
# SUDHL10 [4] = assay: Induction of cytotoxicity (CellTiter-Glo, 5 h), SUDHL10
# [5] = read-out: Cytotox SUDHL10 [M] (median), SUDHL10 cells, cytotoxicity induction, CellTiter-Glo, 5 h incubation, median
# [6] = Homo sapiens, SU-DHL10, 5 h, read-out: Cytotox SUDHL10 [M] (median), SUDHL10 cells, cytotoxicity induction, CellTiter-Glo, 5 h incubation, median
# Sequence of MCL-1 (Q07820 whole entry): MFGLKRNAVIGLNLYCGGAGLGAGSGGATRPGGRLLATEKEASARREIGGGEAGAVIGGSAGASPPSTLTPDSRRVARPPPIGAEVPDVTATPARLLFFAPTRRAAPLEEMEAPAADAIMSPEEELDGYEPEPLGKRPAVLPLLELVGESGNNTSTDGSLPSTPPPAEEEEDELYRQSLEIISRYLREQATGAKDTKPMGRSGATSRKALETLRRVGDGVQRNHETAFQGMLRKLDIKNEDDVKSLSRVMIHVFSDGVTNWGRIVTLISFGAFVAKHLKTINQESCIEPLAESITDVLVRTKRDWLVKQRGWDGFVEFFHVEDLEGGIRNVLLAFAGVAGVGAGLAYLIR
Compound,"IC50 (SUDHL5 [1]; Homo sapiens, SU-DHL-5, 72 h)","EC50 (SUDHL10 [2]; Homo sapiens, SU-DHL10, 3 h)",EC50 (SUDHL5 [3]),IC50 (MCL-1),IC50 (SUDHL5 [1]),EC50 (SUDHL10 [2]),"EC50 (SUDHL5 [3]; Homo sapiens, SU-DHL-5, 3 h)",IC50 (SUDHL10 [4]; [5]),IC50 (SUDHL10 [4]; [6])
"Cc1nn(C)c2c1-c1cccc3c(CCCOc4cccc5cc(Cl)ccc45)c(C(=O)O)n(c13)CCCCOC2 (single isomer, unassigned; enantiomer 1) [Example 041, 7-{3-[(6-chloronaphthalen-1-yl)oxy]propyl}-1,3-dimethyl-1,10,11,12,13,15-hexahydropyrazolo[4′,3′:9,10][1,6]oxazacycloundecino[8,7,6-hi]indole-8-carboxylic acid-N-ethylethanamine Salt (Enantiomer 1)]",9.88e-06 M,18200 nM,13100 nM,4.44 nM,–,–,–,1.46e-05 M,–
"Cc1nn(C)c2c1-c1cccc3c(CCCOc4cccc5cc(F)ccc45)c(C(=O)O)n(c13)CCCOC2 (single isomer, unassigned; enantiomer 1) [Example 047, 1-{3-[(6-fluoronaphthalen-1-yl)oxy]propyl}-9,11-dimethyl-5,6,8,9-tetrahydro-4H-pyrazolo[4′,3′:8,9][1,5]oxazecino[7,6,5-hi]indole-2-carboxylic acid-N-ethylethanamine Salt (Enantiomer 1)]",–,–,2960 nM,2.86 nM,4.41e-06 M,6660 nM,–,6.49e-06 M,–
"COCCn1nc2c(c1CN1CCOCC1)-c1cccc3c(CCCOc4cccc5ccccc45)c(C(=O)O)n(c13)CCCN(C)C2 (single isomer, unassigned; enantiomer 1) [Example 057, 10-(2-methoxyethyl)-7-methyl-11-(morpholin-4-ylmethyl)-1-[3-(naphthalen-1-yloxy)propyl]-4,5,6,7,8,10-hexahydropyrazolo[3′,4′:7,8][1,5]diazecino[9,10,1-hi]indole-2-carboxylic Acid (Enantiomer 1)]",1.04e-05 M,24700 nM,–,45.3 nM,–,–,27900 nM,–,2.39e-05 M
"Cc1c2c(nn1CCN1CCOCC1)CN(C)CCCn1c(C(=O)O)c(CCCOc3cccc4ccccc34)c3cccc-2c31 (single isomer, unassigned; enantiomer 1) [Example 060, 7,11-dimethyl-10-[2-(morpholin-4-yl)ethyl]-1-[3-(naphthalen-1-yloxy)propyl]-4,5,6,7,8,10-hexahydropyrazolo[3′,4′:7,8][1,5]diazecino[9,10,1-hi]indole-2-carboxylic Acid (Enantiomer 1)]",–,–,5130 nM,5.44 nM,1.79e-06 M,8540 nM,–,7.87e-06 M,–
"Cc1ccc2c(CCCOc3cccc4ccccc34)c(C(=O)O)n3c2c1-c1c(nn(C)c1C)CN(C)CCC3 (single isomer, unassigned; enantiomer 1) [Example 073, 7,10,11,12-tetramethyl-1-[3-(naphthalen-1-yloxy)propyl]-4,5,6,7,8,10-hexahydropyrazolo[3′,4′:7,8][1,5]diazecino[9,10,1-hi]indole-2-carboxylic Acid (Enantiomer 1)]",–,–,2120 nM,2.06 nM,3.23e-06 M,2940 nM,–,3.67e-06 M,–
"CCc1c2c(nn1C)CN(C)CCCn1c(C(=O)O)c(CCCOc3cccc4ccccc34)c3ccc(C)c-2c31 (single isomer, unassigned; enantiomer 1) [Example 145, 11-Ethyl-7,10,12-trimethyl-1-[3-(1-naphthyloxy)propyl]-4,5,6,7,8,10-hexahydropyrazolo[3′,4′:7,8][1,5]diazecino[9,10,1-hi]indole-2-carboxylic acid-N-ethylethanamine Salt (Enantiomer 1)]",–,–,889 nM,1.17 nM,1.85e-06 M,2570 nM,–,2.4e-06 M,–
"CCc1c2c(nn1C)COCCCCn1c(C(=O)O)c(CCCOc3cccc4ccccc34)c3ccc(C)c-2c31 (single isomer, unassigned; enantiomer 1) [Example 154, 3-Ethyl-2,4-dimethyl-7-[3-(1-naphthyloxy)propyl]-2,10,11,12,13,15-hexahydropyrazolo[4′,3′:9,10][1,6]oxazacycloundecino[8,7,6-hi]indole-8-carboxylic acid-N-ethylethanamine Salt (Enantiomer 1)]",–,–,661 nM,1.28 nM,2.26e-06 M,1700 nM,–,2.03e-06 M,–
"Cn1nc(COc2ccc(N3CCN(S(C)(=O)=O)CC3)cc2)c2c1COCCCCn1c(C(=O)O)c(CCCOc3cccc4ccccc34)c3cccc-2c31 (single isomer, unassigned; enantiomer 2) [Example 1-10, 1-methyl-3-({4-[4-(methylsulfonyl)piperazin-1-yl]phenoxy}methyl)-7-[3-(naphthalen-1-yloxy)propyl]-1,10,11,12,13,15-hexahydropyrazolo[4′,3′:9,10][1,6]oxazacycloundecino[8,7,6-hi]indole-8-carboxylic acid (enantiomer 2)]",–,–,486 nM,0.93 nM,1.26e-06 M,755 nM,–,4.74e-07 M,–
"Cn1nc(COc2ccc(N3CCN(S(=O)(=O)C4CC4)CC3)cc2)c2c1COCCCCn1c(C(=O)O)c(CCCOc3cccc4ccccc34)c3cccc-2c31 (single isomer, unassigned; enantiomer 2) [Example 1-13, 3-({4-[4-(cyclopropylsulfonyl)piperazin-1-yl]phenoxy}methyl)-1-methyl-7-[3-(naphthalen-1-yloxy)propyl]-1,10,11,12,13,15-hexahydropyrazolo[4′,3′:9,10][1,6]oxazacycloundecino[8,7,6-hi]indole-8-carboxylic Acid (Enantiomer 2)]",–,–,324 nM,0.796 nM,7.58e-07 M,614 nM,–,4.36e-07 M,–

# Second part, led by results:
"IC50 (SUDHL5 [1]; Homo sapiens, SU-DHL-5, 72 h)","EC50 (SUDHL10 [2]; Homo sapiens, SU-DHL10, 3 h)",EC50 (SUDHL5 [3]),IC50 (MCL-1),IC50 (SUDHL5 [1]),EC50 (SUDHL10 [2]),"EC50 (SUDHL5 [3]; Homo sapiens, SU-DHL-5, 3 h)",Compound,IC50 (SUDHL10 [4]; [5]),IC50 (SUDHL10 [4]; [6])
1.81e-05 M,30500 nM,8690 nM,4.37 nM,–,–,–,"CCn1nc2c(c1C1CC1)-c1cccc3c(CCCOc4cccc5ccccc45)c(C(=O)O)n(c13)CCCCOC2 (single isomer, unassigned; enantiomer 1) [Example 082, 3-cyclopropyl-2-ethyl-7-[3-(naphthalen-1-yloxy)propyl]-2,10,11,12,13,15-hexahydropyrazolo[4′,3′:9,10][1,6]oxazacycloundecino[8,7,6-hi]indole-8-carboxylic acid-N-ethylethanamine Salt (Enantiomer 1)]",–,> 3.3e-05 M
–,–,3590 nM,4.51 nM,6.22e-06 M,15500 nM,–,"COCCn1nc2c(c1C1CC1)-c1cccc3c(CCCOc4cccc5ccccc45)c(C(=O)O)n(c13)CCCCOC2 (single isomer, unassigned; enantiomer 1) [Example 085, 3-Cyclopropyl-2-(2-methoxyethyl)-7-[3-(naphthalen-1-yloxy)propyl]-2,10,11,12,13,15-hexahydropyrazolo[4′,3′:9,10][1,6]oxazacycloundecino[8,7,6-hi]indole-8-carboxylic acid-N-ethylethanamine Salt (Enantiomer 1)]",–,1.97e-05 M
–,–,2830 nM,1.19 nM,3.38e-06 M,6640 nM,–,"Cc1c2c(nn1C1CC1)COCCCCn1c(C(=O)O)c(CCCOc3cccc4ccccc34)c3cccc-2c31 (single isomer, unassigned; enantiomer 1) [Example 093, 2-cyclopropyl-3-methyl-7-[3-(naphthalen-1-yloxy)propyl]-2,10,11,12,13,15-hexahydropyrazolo[4′,3′:9,10][1,6]oxazacycloundecino[8,7,6-hi]indole-8-carboxylic acid-N-ethylethanamine Salt (Enantiomer 1)]",7.2e-06 M,–
–,–,1470 nM,1.71 nM,3.82e-06 M,4910 nM,–,"COCCn1nc2c(c1C)-c1cccc3c(CCCOc4cccc5ccccc45)c(C(=O)O)n(c13)CCCCOC2 (single isomer, unassigned; enantiomer 1) [Example 107, 2-(2-methoxyethyl)-3-methyl-7-[3-(naphthalen-1-yloxy)propyl]-2,10,11,12,13,15-hexahydropyrazolo[4′,3′:9,10][1,6]oxazacycloundecino[8,7,6-hi]indole-8-carboxylic acid-N-ethylethanamine Salt (Enantiomer 1)]",4.65e-06 M,–
–,–,881 nM,0.919 nM,2.56e-06 M,3480 nM,–,"CCc1c2c(nn1C)COCCCCn1c(C(=O)O)c(CCCOc3cccc4ccccc34)c3cccc-2c31 (single isomer, unassigned; enantiomer 1) [Example 148, 3-Ethyl-2-methyl-7-[3-(1-naphthyloxy)propyl]-2,10,11,12,13,15-hexahydropyrazolo[4′,3′:9,10][1,6]oxazacycloundecino[8,7,6-hi]indole-8-carboxylic acid-N-ethylethanamine Salt (Enantiomer 1)]",2.4e-06 M,–
